Each structure is given as a SMILES string. Where “and” joins values, the source holds several entries; their conditions need not be identical. Equal entries are not always repeated. Where two headings read alike, the source gives them in different places.

One assay concerns the target AAK1 (Homo sapiens, UniProt Q2M2I8). The assay is described as follows: SelectScreen kinase assay.
In a further assay the target is BMPR1A (ALK3) (Homo sapiens, UniProt P36894). The assay is described as follows: SelectScreen kinase assay. To be noted: for Inhibition at 1 µM (%): BMPR1A (ALK3), LanthaScreen Binding. On the technique in general: In TR-FRET formats the signal depends on donor and acceptor labels being close together.
The target in a further assay is T1, BMX (Homo sapiens, UniProt P51813).
T1 sequence (P51813 1-675): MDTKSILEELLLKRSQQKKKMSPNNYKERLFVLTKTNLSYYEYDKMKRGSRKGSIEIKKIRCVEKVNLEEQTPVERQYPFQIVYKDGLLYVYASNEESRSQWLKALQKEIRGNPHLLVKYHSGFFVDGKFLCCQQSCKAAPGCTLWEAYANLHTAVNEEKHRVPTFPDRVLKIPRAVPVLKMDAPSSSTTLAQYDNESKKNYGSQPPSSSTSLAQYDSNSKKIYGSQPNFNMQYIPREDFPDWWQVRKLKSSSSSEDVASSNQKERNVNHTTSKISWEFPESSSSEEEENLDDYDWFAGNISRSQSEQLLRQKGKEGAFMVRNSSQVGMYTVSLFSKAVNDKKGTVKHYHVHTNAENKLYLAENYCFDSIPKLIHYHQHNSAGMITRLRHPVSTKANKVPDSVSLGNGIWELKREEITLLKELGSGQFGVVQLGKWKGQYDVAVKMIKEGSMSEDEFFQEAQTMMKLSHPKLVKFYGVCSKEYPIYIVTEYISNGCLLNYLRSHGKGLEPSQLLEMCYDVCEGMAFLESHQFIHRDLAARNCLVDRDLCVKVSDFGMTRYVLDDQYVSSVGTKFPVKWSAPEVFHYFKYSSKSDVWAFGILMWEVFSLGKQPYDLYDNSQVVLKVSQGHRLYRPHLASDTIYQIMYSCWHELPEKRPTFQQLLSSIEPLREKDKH
Put plainly: SelectScreen kinase assay.

The target in another assay is T2, DCAMKL1 (DCLK1) (Homo sapiens, UniProt O15075).
T2 sequence (O15075 1-740): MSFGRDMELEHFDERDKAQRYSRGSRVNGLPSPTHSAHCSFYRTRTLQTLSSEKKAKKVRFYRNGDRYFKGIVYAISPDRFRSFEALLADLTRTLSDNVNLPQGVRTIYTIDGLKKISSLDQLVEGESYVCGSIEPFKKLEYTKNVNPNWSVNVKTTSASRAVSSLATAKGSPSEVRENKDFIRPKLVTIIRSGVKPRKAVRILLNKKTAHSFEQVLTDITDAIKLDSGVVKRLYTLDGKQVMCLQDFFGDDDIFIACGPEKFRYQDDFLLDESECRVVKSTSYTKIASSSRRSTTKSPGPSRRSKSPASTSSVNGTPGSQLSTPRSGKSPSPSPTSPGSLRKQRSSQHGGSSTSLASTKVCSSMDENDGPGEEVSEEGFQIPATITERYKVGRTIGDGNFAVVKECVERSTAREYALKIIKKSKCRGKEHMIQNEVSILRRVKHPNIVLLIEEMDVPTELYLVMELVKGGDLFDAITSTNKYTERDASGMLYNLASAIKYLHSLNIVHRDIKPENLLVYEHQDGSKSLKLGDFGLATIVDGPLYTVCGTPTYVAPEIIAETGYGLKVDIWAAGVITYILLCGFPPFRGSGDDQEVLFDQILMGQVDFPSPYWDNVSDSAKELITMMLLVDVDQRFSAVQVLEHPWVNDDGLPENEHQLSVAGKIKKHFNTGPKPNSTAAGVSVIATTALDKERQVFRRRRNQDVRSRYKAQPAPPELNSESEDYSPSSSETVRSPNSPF
Put plainly: SelectScreen kinase assay.

A further assay relates to MAP3K8 (COT). Put plainly: SelectScreen kinase assay. The conditions noted are these: IC50 on that kinase divided by IC50 on FES^S700C.
The target of another assay is T3, MAP4K3 (GLK) (Homo sapiens, UniProt Q8IVH8).
T3 sequence (Q8IVH8 1-894): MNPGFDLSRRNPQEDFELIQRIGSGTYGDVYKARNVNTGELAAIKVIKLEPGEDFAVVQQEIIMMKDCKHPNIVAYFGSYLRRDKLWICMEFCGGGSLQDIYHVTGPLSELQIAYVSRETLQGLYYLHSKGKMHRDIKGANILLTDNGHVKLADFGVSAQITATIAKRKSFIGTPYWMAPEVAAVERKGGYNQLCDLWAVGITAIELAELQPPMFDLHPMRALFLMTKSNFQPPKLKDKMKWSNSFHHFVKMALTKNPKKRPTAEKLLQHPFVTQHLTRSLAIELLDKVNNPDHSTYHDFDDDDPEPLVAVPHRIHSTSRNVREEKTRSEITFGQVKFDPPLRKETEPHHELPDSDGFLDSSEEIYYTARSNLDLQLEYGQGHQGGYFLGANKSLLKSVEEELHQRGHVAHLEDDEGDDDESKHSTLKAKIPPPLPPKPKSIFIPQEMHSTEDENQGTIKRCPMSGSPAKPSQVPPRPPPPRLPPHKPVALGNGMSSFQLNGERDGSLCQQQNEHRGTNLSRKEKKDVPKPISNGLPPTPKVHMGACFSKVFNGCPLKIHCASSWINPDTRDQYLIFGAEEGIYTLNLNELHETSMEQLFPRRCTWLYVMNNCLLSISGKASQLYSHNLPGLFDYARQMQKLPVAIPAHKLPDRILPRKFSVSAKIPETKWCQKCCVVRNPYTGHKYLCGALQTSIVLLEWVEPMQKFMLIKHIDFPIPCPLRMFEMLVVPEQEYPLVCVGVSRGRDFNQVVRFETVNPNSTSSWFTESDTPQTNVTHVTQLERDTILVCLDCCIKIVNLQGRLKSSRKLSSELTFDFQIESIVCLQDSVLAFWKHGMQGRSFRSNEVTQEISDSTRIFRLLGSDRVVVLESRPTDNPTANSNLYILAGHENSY
Put plainly: SelectScreen kinase assay.

For a further assay, the target named is PLK3 (Homo sapiens, UniProt Q9H4B4). Put plainly: SelectScreen kinase assay.
Another assay has as its target full-length FES^S700C (Homo sapiens, UniProt P07332, S700C). The assay is described as follows: Competitive probe labeling with WEL033 in HEK293T lysate (gel-based).
Setting [1] is: 1 h, 1 μM WEL028, 1 h preincubation.

Sequence of PLK3 (Q9H4B4 whole entry): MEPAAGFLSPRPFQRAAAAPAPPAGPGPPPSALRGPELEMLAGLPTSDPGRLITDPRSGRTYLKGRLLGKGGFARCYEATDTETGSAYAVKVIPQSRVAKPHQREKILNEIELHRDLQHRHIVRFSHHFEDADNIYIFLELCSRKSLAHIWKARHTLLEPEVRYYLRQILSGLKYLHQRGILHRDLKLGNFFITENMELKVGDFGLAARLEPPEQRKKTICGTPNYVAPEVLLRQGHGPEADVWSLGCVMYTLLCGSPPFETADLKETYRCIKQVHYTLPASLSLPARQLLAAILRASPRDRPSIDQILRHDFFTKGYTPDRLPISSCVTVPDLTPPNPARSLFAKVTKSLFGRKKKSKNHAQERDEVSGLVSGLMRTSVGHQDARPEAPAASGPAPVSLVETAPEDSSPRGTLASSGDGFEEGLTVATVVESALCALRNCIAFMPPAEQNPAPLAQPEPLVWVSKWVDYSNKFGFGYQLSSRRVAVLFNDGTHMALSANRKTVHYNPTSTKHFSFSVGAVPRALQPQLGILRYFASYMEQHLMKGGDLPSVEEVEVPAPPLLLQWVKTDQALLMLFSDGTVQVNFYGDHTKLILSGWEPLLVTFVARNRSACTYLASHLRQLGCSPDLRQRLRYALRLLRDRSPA
Sequence of BMPR1A (ALK3) (P36894 24-532): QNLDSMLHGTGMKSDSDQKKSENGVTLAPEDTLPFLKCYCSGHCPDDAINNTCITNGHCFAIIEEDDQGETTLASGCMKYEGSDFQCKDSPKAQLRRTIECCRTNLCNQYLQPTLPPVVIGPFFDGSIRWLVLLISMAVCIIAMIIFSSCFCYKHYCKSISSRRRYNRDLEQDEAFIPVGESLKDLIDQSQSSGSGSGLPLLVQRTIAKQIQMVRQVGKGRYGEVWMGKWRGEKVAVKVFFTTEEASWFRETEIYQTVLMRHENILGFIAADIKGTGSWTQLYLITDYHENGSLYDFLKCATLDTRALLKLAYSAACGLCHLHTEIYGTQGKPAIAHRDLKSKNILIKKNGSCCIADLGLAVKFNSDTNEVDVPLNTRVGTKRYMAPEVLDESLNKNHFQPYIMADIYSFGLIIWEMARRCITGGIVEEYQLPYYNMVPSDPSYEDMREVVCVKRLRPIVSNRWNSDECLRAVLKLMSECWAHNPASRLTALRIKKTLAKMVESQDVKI
Sequence of AAK1 (Q2M2I8 whole entry): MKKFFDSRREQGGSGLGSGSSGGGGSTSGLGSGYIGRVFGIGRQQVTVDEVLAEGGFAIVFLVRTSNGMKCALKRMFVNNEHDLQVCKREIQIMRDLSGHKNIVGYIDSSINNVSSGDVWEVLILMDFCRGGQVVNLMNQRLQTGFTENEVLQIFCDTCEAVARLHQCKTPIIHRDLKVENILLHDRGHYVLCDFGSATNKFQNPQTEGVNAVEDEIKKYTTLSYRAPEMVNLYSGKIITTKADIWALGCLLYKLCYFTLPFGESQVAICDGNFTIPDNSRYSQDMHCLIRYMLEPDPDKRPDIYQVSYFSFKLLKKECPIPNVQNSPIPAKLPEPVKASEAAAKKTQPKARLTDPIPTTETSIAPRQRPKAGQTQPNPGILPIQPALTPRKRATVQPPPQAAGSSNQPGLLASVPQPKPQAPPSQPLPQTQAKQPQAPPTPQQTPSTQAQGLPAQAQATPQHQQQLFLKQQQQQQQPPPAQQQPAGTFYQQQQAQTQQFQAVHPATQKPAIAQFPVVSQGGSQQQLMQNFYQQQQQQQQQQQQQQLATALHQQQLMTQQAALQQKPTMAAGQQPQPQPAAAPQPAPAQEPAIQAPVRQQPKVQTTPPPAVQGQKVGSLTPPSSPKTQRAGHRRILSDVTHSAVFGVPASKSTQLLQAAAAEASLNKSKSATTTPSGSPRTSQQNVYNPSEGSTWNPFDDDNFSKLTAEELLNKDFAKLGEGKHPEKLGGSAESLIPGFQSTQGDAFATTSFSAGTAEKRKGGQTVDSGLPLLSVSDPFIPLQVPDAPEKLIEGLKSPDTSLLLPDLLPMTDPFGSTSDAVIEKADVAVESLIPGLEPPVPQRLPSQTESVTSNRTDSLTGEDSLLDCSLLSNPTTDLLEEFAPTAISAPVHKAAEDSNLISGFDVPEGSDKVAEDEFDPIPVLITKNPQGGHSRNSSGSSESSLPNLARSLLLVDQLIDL
Sequence of full-length FES^S700C (P07332 whole entry S700C): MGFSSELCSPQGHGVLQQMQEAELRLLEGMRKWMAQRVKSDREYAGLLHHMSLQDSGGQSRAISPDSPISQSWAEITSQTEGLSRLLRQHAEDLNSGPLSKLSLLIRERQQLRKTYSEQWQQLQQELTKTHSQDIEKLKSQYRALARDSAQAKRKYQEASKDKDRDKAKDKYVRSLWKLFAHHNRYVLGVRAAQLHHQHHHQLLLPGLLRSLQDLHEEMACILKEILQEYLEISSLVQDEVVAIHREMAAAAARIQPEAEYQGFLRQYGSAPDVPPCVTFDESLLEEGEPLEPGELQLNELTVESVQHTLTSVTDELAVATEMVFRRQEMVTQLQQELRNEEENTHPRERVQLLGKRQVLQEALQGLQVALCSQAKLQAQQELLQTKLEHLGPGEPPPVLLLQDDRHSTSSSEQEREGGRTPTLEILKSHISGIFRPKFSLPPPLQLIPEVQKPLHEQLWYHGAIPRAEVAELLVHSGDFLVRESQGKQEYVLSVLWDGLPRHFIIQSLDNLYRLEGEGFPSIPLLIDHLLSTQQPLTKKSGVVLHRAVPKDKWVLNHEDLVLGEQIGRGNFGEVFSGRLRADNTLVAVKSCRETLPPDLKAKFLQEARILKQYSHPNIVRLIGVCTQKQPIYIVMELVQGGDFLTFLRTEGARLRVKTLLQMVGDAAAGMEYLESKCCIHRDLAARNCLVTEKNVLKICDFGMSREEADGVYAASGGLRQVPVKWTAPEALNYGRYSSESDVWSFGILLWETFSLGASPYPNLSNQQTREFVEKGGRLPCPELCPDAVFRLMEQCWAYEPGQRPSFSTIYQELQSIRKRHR
Protocol for AAK1: (§1) Selectivity profiling assays were performed by the Invitrogen SelectScreen™ Services. […] The concentration of ATP was selected to be equal to the KM, unless indicated otherwise.
Protocol for BMPR1A (ALK3): as §1
Protocol for BMX: as §1
Protocol for DCAMKL1 (DCLK1): as §1
Protocol for MAP3K8 (COT): as §1
Protocol for MAP4K3 (GLK): as §1
Protocol for PLK3: as §1

As usually defined, the inhibition is the relative decrease from the control value, in per cent. The term Inhibition denotes the drop in the measured response relative to a control, in per cent. As usually defined, the IC50 is the concentration needed to halve the response being measured. Lower therefore signals greater potency. On to `C#CCOc1ccc(Nc2ncc(Cl)c(Nc3ccccc3NC(=O)C=C)n2)c(OC)c1` [Compound 6], for which the inhibition at 1 µM against AAK1 (setting [1]) was 33%; at AAK1 (read-out: Inhibition at 1 µM (%), AAK1, 1 µM, LanthaScreen Binding), 35%; on BMPR1A (ALK3) (setting [1]) it was -2%; at BMX (setting [1]) it was 16%; at BMX (read-out: Inhibition at 1 µM (%), BMX, 1 µM, ZLYTE, ATP Km app), 14%; at DCAMKL1 (DCLK1) (read-out: Inhibition at 1 µM (%), DCAMKL1 (DCLK1), 1 µM, ZLYTE, ATP Km app) it was 3%. Besides, the inhibition at 1 µM at MAP4K3 (GLK) (read-out: Inhibition at 1 µM (%), MAP4K3 (GLK), 1 µM, LanthaScreen Binding) was 4%; at PLK3 (setting [1]) it was -1%. For the same compound, the “Inhibition at 1 µM (%)” value at AAK1 (AAK1, 1 µM, LanthaScreen Binding, listed as WEL028, 1 µM) is listed as 30%; on BMPR1A (ALK3), 2%; at BMPR1A (ALK3) (listed as WEL028, 1 µM), -6%; on BMX (BMX, 1 µM, ZLYTE, ATP Km app, listed as WEL028, 1 µM), 18%; on DCAMKL1 (DCLK1) (DCAMKL1 (DCLK1), 1 µM, ZLYTE, ATP Km app, listed as WEL028, 1 µM) it was 5%; at MAP4K3 (GLK) (MAP4K3 (GLK), 1 µM, LanthaScreen Binding, listed as WEL028, 1 µM), 2%. Moreover, on PLK3 (PLK3, 1 µM, ZLYTE, ATP Km app, listed as WEL028, 1 µM), the “Inhibition at 1 µM (%)” value is 2% and -3%. The “Inhibition (%)” value on DCAMKL1 (DCLK1) (1 μM WEL028, 1 h preincubation) was found to be 4%; at MAP4K3 (GLK) (1 μM WEL028, 1 h preincubation), 3%. In the assay on MAP3K8 (COT), the Apparent fold selectivity amounted to 57 fold. The IC50 on full-length FES^S700C is 12.6 nM.
